The results in this text go back to patent US20250147039A1, “Compounds for complexation of rare earth elements and/or s-, p-, d- block metals, their coordination compounds, peptide conjugates, method of their preparation and use thereof” (USTAV ORGANICKE CHEMIE A BIOCHEMIE AV CR V.V.I., priority 2021, published 2025).

What all share (assay type): physicochemical
The nature of series [1]: Dissociation of chelates in aq. 6.0M HCl at 80° C. (acid decomplexation kinetic inertness) (Chart 17).
Series [2] can be described thus: Dissociation of chelates in aq. 1.0M HCl at 80° C. (acid decomplexation kinetic inertness) (Chart 18).
A short description of series [3]: Dissociation of chelates in aq. 0.1M HCl at 80° C. (acid decomplexation kinetic inertness) (Chart 19).
A short description of series [4]: Dissociation of chelates in aq. 0.1M HCl at RT (acid decomplexation kinetic inertness) (Chart 20).

`O=C1C[N@@]2CC[N@]3CC[N@@](CC[N@](CC2)Cc2cccc(n2)-c2cn(nn2)Cc2cc(-c4ccccc4)cc(n2)C3)CC(=O)[O][Lu][O]1` [TD874]: the “fraction of intact chelate” value in series [1] (1 month), in series [1] (1 week), in series [1] (1 hour), in series [1] (1 day), in series [2] (1 month) and in series [2] (1 week) was 0% each time. In addition, the “fraction of intact chelate” value in series [2] (1 hour), in series [2] (1 day), in series [3] (1 month), in series [3] (1 week), in series [3] (1 hour) and in series [3] (1 day) was 0% in each case. Further, the “fraction of intact chelate” value in series [4] (1 month) is recorded as 0%; in series [4] (1 week), 14%; in series [4] (1 hour), 99%; in series [4] (1 day), 68%.

Take `O=C1C[N@@]2CC[N@]3CC[N@@](CC[N@](CC2)Cc2cccc(n2)-c2cnnn2Cc2cc(-c4ccccc4)cc(n2)C3)CC(=O)[O][Eu][O]1` [TD599]: the “fraction of intact chelate” value in series [1] (1 month), in series [1] (1 week), in series [1] (1 hour), in series [1] (1 day), in series [2] (1 month) and in series [2] (1 week) was 0% each time. In addition, the “fraction of intact chelate” value in series [2] (1 hour) was found to be 92%; in series [2] (1 day), 10%; in series [3] (1 month) it was 21%; in series [3] (1 week), 83%; in series [3] (1 hour) it was 100%; in series [3] (1 day), 97%. Besides, the “fraction of intact chelate” value in series [4] (1 month), in series [4] (1 week), in series [4] (1 hour) and in series [4] (1 day) was 100% in each case.

For the compound `O=C([O-])CN1CCN2CCN(CC(=O)[O-])CCN(CC1)Cc1cccc(n1)-c1cnnn1Cc1cc(-c3ccccc3)cc(n1)C2.[Ca+2]` [TD863], the “fraction of intact chelate” value in series [1] (1 month), in series [1] (1 week), in series [1] (1 hour), in series [1] (1 day), in series [2] (1 month) and in series [2] (1 week) was 0% each time. For the same compound, the “fraction of intact chelate” value in series [2] (1 hour), in series [2] (1 day), in series [3] (1 month), in series [3] (1 week), in series [3] (1 hour) and in series [3] (1 day) was 0% each time. The “fraction of intact chelate” value is listed as 0% in series [4] (1 month), 0% in series [4] (1 week), 39% in series [4] (1 hour) and 0% in series [4] (1 day).

For `O=C1C[N@@]2CC[N@]3CC[N@@](CC[N@](CC2)Cc2cccc(n2)-c2cnnn2Cc2cc(-c4ccccc4)cc(n2)C3)CC(=O)[O][Ce][O]1` [TD870], the “fraction of intact chelate” value in series [1] (1 month), in series [1] (1 week), in series [1] (1 hour), in series [1] (1 day), in series [2] (1 month) and in series [2] (1 week) was 0% throughout. For the same compound, the “fraction of intact chelate” value in series [2] (1 hour), in series [2] (1 day), in series [3] (1 month), in series [3] (1 week), in series [3] (1 hour) and in series [3] (1 day) was 0% each time. The “fraction of intact chelate” value was determined as 0% in series [4] (1 month), 0% in series [4] (1 week), 95% in series [4] (1 hour) and 37% in series [4] (1 day).

Turning to `O=C1C[N@@]2CC[N@]3CC[N@@](CC[N@](CC2)Cc2cccc(n2)-c2cnnn2Cc2cc(-c4ccccc4)cc(n2)C3)CC(=O)[O][Yb][O]1` [TD602], the “fraction of intact chelate” value in series [1] (1 month) came out at 90%; in series [1] (1 week) it was 98%; in series [1] (1 hour) it was 100%; in series [1] (1 day) it was 100%; in series [2] (1 month), 100%; in series [2] (1 week), 100%. For the same compound, the “fraction of intact chelate” value in series [2] (1 hour), in series [2] (1 day), in series [3] (1 month), in series [3] (1 week), in series [3] (1 hour) and in series [3] (1 day) was 100% each time. Further, the “fraction of intact chelate” value in series [4] (1 month), in series [4] (1 week), in series [4] (1 hour) and in series [4] (1 day) was 100% throughout.

Take `O=C1C[N@@]2CC[N@]3CC[N@@](CC[N@](CC2)Cc2cccc(n2)-c2cnnn2Cc2cc(-c4ccccc4)cc(n2)C3)CC(=O)[O][Dy][O]1` [TD866]: the “fraction of intact chelate” value in series [1] (1 month) stood at 0%; in series [1] (1 week), 0%; in series [1] (1 hour) it was 95%; in series [1] (1 day) it was 25%; in series [2] (1 month), 87%; in series [2] (1 week) it was 96%. Also, the “fraction of intact chelate” value in series [2] (1 hour) came out at 100%; in series [2] (1 day), 99%; in series [3] (1 month), 100%; in series [3] (1 week), 100%; in series [3] (1 hour), 100%; in series [3] (1 day), 100%. In addition, the “fraction of intact chelate” value in series [4] (1 month), in series [4] (1 week), in series [4] (1 hour) and in series [4] (1 day) was 100% throughout.

On to `O=C1C[N@@]2CC[N@]3CC[N@@](CC[N@](CC2)Cc2cccc(n2)-c2cn(nn2)Cc2cc(-c4ccccc4)cc(n2)C3)CC(=O)[O][Cd][O]1` [TD900], for which the “fraction of intact chelate” value in series [1] (1 month), in series [1] (1 week), in series [1] (1 hour), in series [1] (1 day), in series [2] (1 month) and in series [2] (1 week) was 0% each time. Moreover, the “fraction of intact chelate” value in series [2] (1 hour) was 0%; in series [2] (1 day), 0%; in series [3] (1 month) it was 0%; in series [3] (1 week), 0%; in series [3] (1 hour), 56%; in series [3] (1 day), 0%. Moreover, the “fraction of intact chelate” value is reported as 63% in series [4] (1 month), 91% in series [4] (1 week), 100% in series [4] (1 hour) and 99% in series [4] (1 day).

On to `O=C1C[N@@]2CC[N@]3CC[N@@](CC[N@](CC2)Cc2cccc(n2)-c2cnnn2Cc2cc(-c4ccccc4)cc(n2)C3)CC(=O)[O][Er][O]1` [TD865], for which the “fraction of intact chelate” value in series [1] (1 month) came out at 24%; in series [1] (1 week) it was 71%; in series [1] (1 hour), 99%; in series [1] (1 day), 95%; in series [2] (1 month) it was 99%; in series [2] (1 week), 100%. In addition, the “fraction of intact chelate” value in series [2] (1 hour), in series [2] (1 day), in series [3] (1 month), in series [3] (1 week), in series [3] (1 hour) and in series [3] (1 day) was 100% throughout. The “fraction of intact chelate” value in series [4] (1 month), in series [4] (1 week), in series [4] (1 hour) and in series [4] (1 day) was 100% throughout.

`O=C1C[N@@]2CC[N@]3CC[N@@](CC[N@](CC2)Cc2cccc(n2)-c2cnnn2Cc2cc(-c4ccccc4)cc(n2)C3)CC(=O)[O][Y][O]1` [TD649]: the “fraction of intact chelate” value in series [1] (1 month) is given as 0%; in series [1] (1 week) it was 7%; in series [1] (1 hour), 98%; in series [1] (1 day), 69%; in series [2] (1 month), 92%; in series [2] (1 week), 98%. Also, the “fraction of intact chelate” value in series [2] (1 hour), in series [2] (1 day), in series [3] (1 month), in series [3] (1 week), in series [3] (1 hour) and in series [3] (1 day) was 100% throughout. Moreover, the “fraction of intact chelate” value in series [4] (1 month), in series [4] (1 week), in series [4] (1 hour) and in series [4] (1 day) was 100% in each case.

With `O=P1(c2ccccc2)C[N@@]2CC[N@]3CC[N@@](CC[N@](CC2)Cc2cccc(n2)-c2cnnn2Cc2cccc(n2)C3)CP(=O)(c2ccccc2)[O][Gd][O]1` (stereo partly shown) [TD925], the “fraction of intact chelate” value is 0% in series [1] (1 month); 0% in series [1] (1 week); 77% in series [1] (1 hour); 0% in series [1] (1 day); 0% in series [2] (1 month); 21% in series [2] (1 week). Besides, the “fraction of intact chelate” value in series [2] (1 hour) is given as 100%; in series [2] (1 day), 82%; in series [3] (1 month), 60%; in series [3] (1 week), 90%; in series [3] (1 hour), 100%; in series [3] (1 day) it was 98%. In addition, the “fraction of intact chelate” value in series [4] (1 month), in series [4] (1 week), in series [4] (1 hour) and in series [4] (1 day) was 100% in each case.
